From patent US20180030091A1, “COLLAGEN-BINDING SYNTHETIC PEPTIDOGLYCANS FOR USE IN VASCULAR INTERVENTION” (Purdue Research Foundation, priority 2010, published 2018)
Entries after “also recorded” stand apart in the source; their conditions may differ. Where no end group is shown, it is not given here.

Columns and labels:
collagen [1] = target: T1, collagen (Bos taurus, UniProt P02453+P02465); test: Collagen fibrillogenesis by turbidity at 313 nm; type: biochemical; details: 1:1 collagen:additive molar ratio
T1 construct: purchased Inamed, Freemont, Calif; (Nutragen)
Protocol: Collagen fibrillogenesis was monitored by measuring turbidity related absorbance at 313 nm providing information on rate of fibrillogenesis and fibril diameter. Gel solutions were prepared as described in EXAMPLE 15 (4 mg/mL collagen, 10:1 collagen:treatment, unless otherwise indicated) and 50 uL/well were added at 4° C. to a 384-well plate. The plate was kept at 4° C. for 4 hours before initiating fibril formation. A SpectraMax M5 at 37° C. was used to measure absorbance at 313 nm at 30 s intervals for 6 hours.
A fibrillogenesis assay as described for DS-SILY, EXAMPLE 17, performed with the conjugate DS-Dc13.

[2] = tested on: Human aortic smooth muscle cells; test: Collagen remodeling: hydroxyproline content in medium of cell-seeded collagen gels; type: cell-based; details: up to 30 days
Protocol: Following a method by Grassl, et al. (Grassl, et al., Journal of Biomedical Materials Research 2002, 60, (4), 607-612), which is herein incorporated in its entirety, collagen gels with or without synthetic PG mimics were formed as described in EXAMPLE 15. Human aortic smooth muscle cells (Cascade Biologics, Portland, Oreg.) were seeded within collagen gels by adding 4×10^6 cells/mL to the neutralized collagen solution prior to incubation. The cell-collagen solutions were pipetted into an 8-well Lab-Tek chamber slide and incubated in a humidified 37° C. and 5% CO2 incubator. After gelation, the cell-collagen gels will be covered with 1 mL Medium 231 as prescribed by Cascade. Every 3-4 days, the medium was removed from the samples and the hydroxyproline content measured by a standard hydroxyproline assay (Reddy, 1996).
To measure degraded collagen in the supernatant medium, the sample was lyophilized, the sample hydrolyzed in 2 M NaOH at 120° C. for 20 min. After cooling, free hydroxyproline was oxidized by adding chloramine-T (Sigma) and reacting for 25 min at room temperature. Ehrlich's aldehyde reagent (Sigma) was added and allowed to react for 20 min at 65° C. and followed by reading the absorbance at 550 nm on an M-5 spectrophotometer (Molecular Devices). […] Cultures were incubated for up to 30 days and three samples of each treatment measured. […]

collagen [3] = test: Cryo-SEM measurement of fibril diameters; details: cryo-SEM images at 20,000×
Protocol: Using a modification of EXAMPLE 18 fibril diameters were measured by 8cryo-SEM. Fibril diameters from cryo-SEM images taken at 20,000× were measured using ImageJ software (NIH). At least 45 fibrils were measured for each treatment. Results are presented as Avg.±S.E. Statistical analysis was performed using DesignExpert software (StatEase) with α=0.05.

[4] = tested on: Human coronary artery smooth muscle cells (HCA SMC); test: Gel compaction by smooth muscle cells in collagen gels; type: cell-based
Protocol: Human coronary artery smooth muscle cells (HCA SMC) (Cascade Biologics) were cultured in growth medium (Medium 231 supplemented with smooth muscle growth factor). Cells from passage 3 were used for all experiments. Differentiation medium (Medium 231 supplemented with 1% FBS and 1×pen/strep) was used for all experiments unless otherwise noted.
Collagen gels were prepared with each additive as described with the exception that the 1×PBS sample addition was omitted to accommodate the addition of cells in media. After incubating on ice for 30 min, HCA SMCs in differentiation medium were added to the gel solutions to a final concentration of 1×10^6 cells/mL. Gels were formed in quadruplicate in 48-well non-tissue culture treated plates (Costar) for 6 hrs before adding 500 μL/well differentiation medium. Gels were freed from the well edges after 24 hrs. Medium was changed every 2-3 days and images for compaction were taken at the same time points using a Gel Doc System (Bio-Rad). The cross-sectional area of circular gels correlating to degree of compaction was determined using ImageJ software (NIH). Gels containing no cells were used as a negative control and cells in collagen gels absent additive were used as a positive control. By day 10 all gels had compacted to approximately 10% of the original gel area, and differences between additives were small.

Fibrillar collagen = test: Binding affinity of biotin labeled peptidoglycan to fibrillar collagen; details: biotin labeled peptidoglycans, fitted saturation binding curves
Protocol: Fibrillar collagen (Chronolog, Havertown, Pa.) was coated onto the surface of a 96-well high bind plate (Costar) at a concentration of 50 μg/mL diluted in isotonic glucose. Plates were covered and incubated overnight at 4° C. Unbound collagen was removed by rinsing 3 times with 1×PBS pH 7.4. Plates were then blocked with 1% BSA for 3 hours at room temperature. Peptidoglycan was dissolved at varying concentrations in 1×PBS pH 7.4 containing 1% BSA and were immediately added to the collagen surfaces, and allowed to incubate for 15 min at room temperature. Plates were then rinsed 3 times with 1×PBS pH 7.4 containing 1% BSA. Streptavidin-HRP solution (R&D Systems, Minneapolis, Minn.) was then added to the plates and incubated for 20 minutes at room temperature. […] The color evolving reaction was stopped with 50 μL 2N sulfuric acid and absorbance was measured at 450 nm using an M5 UV Vis Spectrophotometer (Molecular Devices). Plate imperfections (540 nm) were subtracted from absorbance values.
The binding affinities of biotin labeled peptidoglycans, labeled using protocols known in the art, DS-SILY4 and DS-SILY18 were calculated by fitting the saturation binding curves and calculating the inflection point. […]

[5] = tested on: Human platelets on Type I fibrillar collagen; test: Inhibition of platelet activation on fibrillar collagen after 24 hour rinse (PF4, NAP2); type: cell-based; details: 50 μM, incubated 15 min, rinsed for 24 hours
Protocol: Type I fibrillar collagen from Chronolog was diluted in isotonic glucose to a concentration of 50 μg/mL. 50 μL of collagen solution was added to each well of a high bind 96-well plate. The plate was incubated overnight at 4° C., and then rinsed 3× with 1×PBS. For microplate assays, peptidoglycan was diluted in 1×PBS at concentrations between 0.0001 μM to 100 μM and 50 μL solution was added to the collagen coated wells. DS, peptide, or 1×PBS were also added to collagen coated wells as controls. Treatments were incubated at 37° C. with shaking at 200 rpm for 15 min. Wells were then rinsed of unbound treatment by removing the treatment solution, adding PBS, and shaking the wells for 24 hours. During the 24 hours, PBS solution was changed 3 times.
Human whole blood was collected from healthy volunteers by venipuncture. The first 5 mL of blood was discarded and approximately 20 mL was then collected into citrated glass vacutainers (BD Bioscience). Blood was centrifuged in the glass tube for 20 min at 200 g at 25° C. The top layer of the centrifuged blood, the platelet rich plasma (PRP), was used for platelet experiments.
PRP (50 μL/well) was added to the microplate for 1 hour at room temperature without shaking. After 1 hour of incubation, 45 μL of PRP was removed from each well and added to a microcentrifuge tube containing […] ETP (107 mM EDTA, 12 mM theophylline, and 2.8 mM prostaglandin E1) to inhibit further platelet activation. These tubes were spun at 4° C. for 30 min at 2000 g to pellet the platelets. The supernatant (platelet serum) was collected for ELISA studies to test for the presence of platelet activation markers PF-4 and NAP2. Sandwich ELISAs were utilized in order to detect each protein. The components for both sandwich ELISAs were purchased from R&D Systems and the provided protocols were followed. Platelet serum was diluted 10,000 times in 1% BSA in 1×PBS for values to fall within a linear range.
Platelet activation was measured through release of platelet factor 4 (PF4) and β-thromboglobulin (NAP2). […] Since the high SILY/DS ratio is expected to provide higher binding affinity to the collagen surface due to multiple interactions, peptidoglycans with the higher SILY/DS ratios were prepared.
The number of peptides per DS molecule was further increased to 18 to create the peptidoglycan DS-SILY18, and the concentration of molecule needed to inhibit platelet activation was tested. […] Within solubility limits, the number of peptides can be increased to achieve maximal platelet inhibition as well as to reduce diffusion over time, where a higher level of peptidoglycans on the denuded vessel wall is sustained.

collagen [6] = target: T1, collagen; test: Cryo-SEM measurement of fibril density; details: 10:1 molar ratio, cryo-SEM 10,000×
Protocol: Collagen gels were formed in the presence of each additive at a 10:1 molar ratio, as described in EXAMPLE 15, directly on the SEM stage, processed, and imaged as described. Images at 10,000× were analyzed for fibril density calculations. Images were converted to 8-bit black and white, and threshold values for each image were determined using ImageJ software (NIH). The threshold was defined as the value where all visible fibrils are white, and all void space is black. The ratio of white to black area was calculated using MatLab software. All measurements were taken in triplicate and thresholds were determined by an observer blinded to the treatment.

collagen [7] = test: SILY binding to collagen (Biacore surface plasmon resonance)
Protocol: Biacore studies were performed on a Biacore 2000 using a CM-3 chip (Biacore, Inc., Piscataway, N.J.). The CM-3 chip is coated with covalently attached carboxymethylated dextran, which allows for attachment of the substrate collagen via free amine groups. Flow cells (FCs) 1 and 2 were used, with FC-1 as the reference cell and FC-2 as the collagen immobilized cell. Each FC was activated with EDC-NHS, and 1500 RU of collagen was immobilized on FC-2 by flowing 1 mg/mL collagen in sodium acetate, pH 4, buffer at 5 μL/min for 10 min. Unreacted […] sites were capped with ethanolamine; the control FC-1 was activated and capped with ethanolamin.
To determine peptide binding affinity, SILY was dissolved in 1×HBS-EP buffer (Biacore) at varying concentrations from 100 μM to 1.5 μm in 2-fold dilutions. […] The first 10 injections were buffer injections, which help to prime the system, followed by randomized sample injections, run in triplicate. Analysis was performed using BIAevaluation software (Biacore).

T1 sequence (P02453 162-1217 limits assumed): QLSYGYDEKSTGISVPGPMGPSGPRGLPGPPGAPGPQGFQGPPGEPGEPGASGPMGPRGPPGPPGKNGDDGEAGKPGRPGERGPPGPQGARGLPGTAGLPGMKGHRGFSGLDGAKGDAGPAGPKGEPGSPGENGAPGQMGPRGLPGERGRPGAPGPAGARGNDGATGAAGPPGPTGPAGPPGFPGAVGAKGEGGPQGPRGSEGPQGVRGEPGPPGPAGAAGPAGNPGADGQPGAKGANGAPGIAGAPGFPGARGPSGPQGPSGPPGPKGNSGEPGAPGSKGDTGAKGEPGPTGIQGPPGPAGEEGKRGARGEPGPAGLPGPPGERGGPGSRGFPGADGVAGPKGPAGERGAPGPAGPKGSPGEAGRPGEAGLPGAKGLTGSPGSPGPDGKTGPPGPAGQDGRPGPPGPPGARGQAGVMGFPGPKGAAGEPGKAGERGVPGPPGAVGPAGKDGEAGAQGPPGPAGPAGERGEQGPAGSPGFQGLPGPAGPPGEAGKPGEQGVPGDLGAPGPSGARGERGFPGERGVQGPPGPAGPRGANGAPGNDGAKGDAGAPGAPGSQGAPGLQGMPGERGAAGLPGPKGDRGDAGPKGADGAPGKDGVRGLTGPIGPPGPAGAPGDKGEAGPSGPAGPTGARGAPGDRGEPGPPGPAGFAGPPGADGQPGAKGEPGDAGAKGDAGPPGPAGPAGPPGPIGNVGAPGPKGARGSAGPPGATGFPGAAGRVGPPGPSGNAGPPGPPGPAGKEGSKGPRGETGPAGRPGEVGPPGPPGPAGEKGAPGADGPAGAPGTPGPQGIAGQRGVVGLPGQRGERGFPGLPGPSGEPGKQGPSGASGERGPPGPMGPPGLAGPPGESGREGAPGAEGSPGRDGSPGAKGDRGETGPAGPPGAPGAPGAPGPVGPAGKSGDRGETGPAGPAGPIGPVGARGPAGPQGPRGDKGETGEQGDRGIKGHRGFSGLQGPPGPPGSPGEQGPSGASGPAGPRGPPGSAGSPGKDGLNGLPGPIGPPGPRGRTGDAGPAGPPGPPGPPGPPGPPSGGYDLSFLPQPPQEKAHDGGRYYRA
T1 sequence (P02465 80-1117 limits assumed): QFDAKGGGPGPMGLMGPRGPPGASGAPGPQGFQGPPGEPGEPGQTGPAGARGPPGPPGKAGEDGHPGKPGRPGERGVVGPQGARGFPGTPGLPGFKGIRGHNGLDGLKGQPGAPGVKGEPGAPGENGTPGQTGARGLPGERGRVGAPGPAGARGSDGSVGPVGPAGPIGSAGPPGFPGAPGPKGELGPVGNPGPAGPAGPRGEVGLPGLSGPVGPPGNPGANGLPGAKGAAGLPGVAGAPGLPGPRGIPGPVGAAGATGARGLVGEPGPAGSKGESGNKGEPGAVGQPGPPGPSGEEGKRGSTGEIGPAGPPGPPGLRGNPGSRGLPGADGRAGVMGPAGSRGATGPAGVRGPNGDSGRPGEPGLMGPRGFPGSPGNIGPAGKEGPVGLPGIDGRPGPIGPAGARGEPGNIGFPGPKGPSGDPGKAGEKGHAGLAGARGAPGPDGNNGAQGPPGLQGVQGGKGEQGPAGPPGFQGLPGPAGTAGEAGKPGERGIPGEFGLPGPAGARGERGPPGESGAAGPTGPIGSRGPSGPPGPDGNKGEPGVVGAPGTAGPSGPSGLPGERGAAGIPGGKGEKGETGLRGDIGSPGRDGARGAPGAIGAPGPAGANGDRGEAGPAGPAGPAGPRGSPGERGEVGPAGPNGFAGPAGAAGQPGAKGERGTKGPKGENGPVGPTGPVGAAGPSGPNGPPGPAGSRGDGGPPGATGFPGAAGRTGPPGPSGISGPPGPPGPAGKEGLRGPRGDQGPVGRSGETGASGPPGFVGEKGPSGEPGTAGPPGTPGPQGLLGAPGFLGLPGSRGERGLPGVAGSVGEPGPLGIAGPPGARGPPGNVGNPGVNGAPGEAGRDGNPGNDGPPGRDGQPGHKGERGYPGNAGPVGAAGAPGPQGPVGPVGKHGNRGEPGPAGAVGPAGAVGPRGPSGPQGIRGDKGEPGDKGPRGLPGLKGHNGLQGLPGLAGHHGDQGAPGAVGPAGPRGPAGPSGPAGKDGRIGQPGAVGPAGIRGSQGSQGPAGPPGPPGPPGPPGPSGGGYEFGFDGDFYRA

Substance: SYIRIADTNITGC [Dc13]
- fibrillogenesis (absorbance at 313 nm), free peptide (collagen [1]): little effect on fibrillogenesis compared to collagen alone
- collagen degradation by hydroxyproline content in cell medium [2]: greater collagen degradation compared to collagen alone

Substance: Decorin
- fibril diameter (collagen [3]): significantly decrease fibril diameter over collagen or collagen+DS; also recorded: significantly decrease fibril diameter over collagen or collagen+dermatan sulfate
- gel compaction, day 7 ([4]; Day 7): significant against all samples
- gel compaction, days 3 and 5 ([4]; Days 3 and 5): significant relative to collagen and DS

Substance: DS-SILY4: dermatan sulfate with 4 SILY peptides via BMPH; tested biotin labeled (RRANAALKAGELYKSILYGC-NH2; also: Cys thiol coupled via BMPH crosslinker to oxidized dermatan sulfate, 4 peptides per glycan, biotin label in tested form, position not given here)
- Kd (Fibrillar collagen): 118 nM

Substance: RRANAALKAGELYKSILYGC
- inhibition of platelet activation (release of PF4 and NAP2) [5]: little to no effect on inhibiting platelet activation
- fibril density (ratio of fibril containing area to void space) (collagen [6]): significantly greater fibril density
- binding to collagen (association/disassociation curves) (collagen [7]; 100 μM to 1.5 μm in 2-fold dilutions): binds reversibly with collagen
- Kd (collagen [7]; calculated from the on-off binding kinetics, collagen on CM-3 chip): 1200 nM
- collagen degradation by hydroxyproline content in cell medium [2]: greater collagen degradation compared to collagen alone
